{
  "source": "patent US20230321083A1",
  "about": "“Inhibitors of GPR174 and Uses Thereof” (Omeros Corporation, priority 2016, published 2023)",
  "key": {"human PBMCs": {"system": "human PBMCs", "assay": "Treg (FoxP3/Helios) flow cytometry in anti-CD3/anti-CD28 stimulated human PBMCs", "assay_type": "cell-based", "protocol": "(§1) A fraction of the cells was taken for staining on day 3 post-stimulation, while the rest of the cells were split 1:4 with fresh medium and used for staining on day 7 post-stimulation. To determine the fraction of natural Treg (nTreg) cells (FoxP3^+Helios^+), PBMCs were washed, stained with fluorescently labeled anti-CD4 antibodies, fixed, permeabilized and stained with a mixture of fluorescent anti-FoxP3 and anti-Helios antibodies. Labeled cells were analyzed by flow cytometry for populations stained for these three markers. Each experiment was performed in triplicate and was repeated five times.\nas §1, with “three” for “five”\nas §1, with “day 2” for “day 3”, “(FoxP3^+Helios^+), PBMC” for “(FoxP3^+Helios^+), PBMCs”"}, "C57BL/6+DBA1 splenocytes": {"system": "C57BL/6+DBA1 splenocytes", "assay": "Cytokines in C57BL/6 + DBA1 splenocyte co-culture", "assay_type": "cell-based, mouse", "details": "30 μM; day 6 after mixing", "protocol": "In order to stimulate T cells in mice, splenocytes obtained from two different mouse strains, C57BL/6 and DBA1, were mixed in culture.\nThe effect of compound #10 on production of cytokines (IFN-γ, IL-5, TNF-α, IL-2, IL-6, IL-4, IL-10, IL-9, IL17A, IL17F, IL-21, IL-22 and IL-13) in mouse splenocyte co-cultures was determined as follows. Splenocytes obtained from two different mouse strains, C57BL/6 and DBA1, were mixed in culture in the presence or absence of 30 μM compound #10. Cytokine production of IFN-γ, IL-5, TNF-α, IL-2, IL-6, IL-4, IL-10, IL-9, IL-17A, IL-17F, IL-21, IL-22 and IL-13 was measured in the co-culture supernatant at day 4 and day 6 after mixing. Cytokine levels were determined by LEGENDplex™ bead-based immunoassays from BioLegend (San Diego, CA) according to the manufacturer's instructions."}},
  "data": [
    {"smiles": "CC1CCN(c2cc(N3CCN(S(=O)(=O)c4ccccc4)CC3)c([N+](=O)[O-])cc2F)CC1", "note": "[Compound 10]", "values": [
      {"measurement": "fraction of FoxP3+Helios− cells in CD4+ population", "setting": "human PBMCs; day 3 post-stimulation, 100 μM, p=0.03 vs vehicle", "value": "significantly increased"},
      {"measurement": "abundance of FoxP3+Helios+ nTreg cells (fraction of vehicle)", "setting": "human PBMCs; day 7, 30 μM, PBMC from eight donors", "value": "significantly reduced"},
      {"measurement": "abundance of FoxP3+Helios+ nTreg cells in CD4+ population", "setting": "human PBMCs; day 7, 3, 10, 30 μM, single donor, dose-dependent", "value": "significantly reduced"},
      {"measurement": "abundance of FoxP3+Helios+ nTreg cells in CD4+ population", "setting": "human PBMCs; day 7 post-stimulation, 100 μM, p=0.01 vs vehicle", "value": "significantly reduced"},
      {"measurement": "fold induction of a panel of cytokines in splenocyte co-culture", "setting": "C57BL/6+DBA1 splenocytes", "value": "strong alteration in quantities of cytokines"}
    ]}
  ]
}
